Measured values published in patent US11390629B2, “1,5-disubstituted 1,2,3-triazoles are inhibitors of Rac/Cdc42 GTPases” (UNIVERSITY OF PUERTO RICO, priority 2016, dated 2022).
pIC50: −log10 of the molar value. Values joined by “and” are separate entries in the source; they are usually repeats but may differ in a detail not shown here. Equal values may be shown once. Read-outs that look alike come from different tables or passages of the source.

Assays:
MDA-MB-231 = experiment: Migration inhibition, MDA-MB-231 (Table 1B); type: cell-based; conditions: Homo sapiens
MDA-MB-231 cells = experiment: Cell viability assay (CellTiter 96 / MTT), MDA-MB-231; conditions: Homo sapiens, MDA-MB-231, read-out: GI50 (μM) MDA-MB-231
Rac = conditions: read-out: IC50 (effective concentrations); cited from earlier work
Rac and Cdc42 = conditions: cited from earlier work
Cdc42 = Cdc42 (Homo sapiens, UniProt P60953); conditions: cited from earlier work
[1] = after oral and intraperitoneal (i.p.) administration; cited from earlier work
Rac1 [2] = biological target: T1, Rac1 (Homo sapiens, UniProt P63000); conditions: cited from earlier work
T1 construct: host or cells: MDA-MB-435

mammary tumor = conditions: cited from earlier work
Rac1 [3] = biological target: T1, Rac1; experiment: Rac activity inhibition by EHop-016 (reported), MDA-MB-435 metastatic cells; type: cell-based

Chain of Cdc42 (P60953 whole entry): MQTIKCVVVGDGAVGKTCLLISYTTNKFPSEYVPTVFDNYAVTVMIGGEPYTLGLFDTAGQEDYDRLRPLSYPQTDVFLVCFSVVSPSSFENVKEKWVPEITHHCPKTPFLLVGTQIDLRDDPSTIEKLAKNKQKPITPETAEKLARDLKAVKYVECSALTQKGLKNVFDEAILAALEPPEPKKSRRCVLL

With CCn1c2ccccc2c2cc(-n3nncc3-c3cccc(C)c3)ccc21 [I-2, 9-ethyl-3-(5-(m-tolyl)-1H-1,2,3-triazol-1-yl)-9H-carbazole] the inhibition at 1 µM (MDA-MB-231) was at most 1% and the GI50 (MDA-MB-231 cells) was 1.33 µM.

Compound CCn1c2ccccc2c2cc(-n3nncc3-c3ccsc3)ccc21 [I-5, 9-ethyl-3-(5-(thiophen-3-yl)-1H-1,2,3-triazol-1-yl)-9H-carbazole] has an inhibition at 1 µM (MDA-MB-231) of 2.4% and a GI50 (MDA-MB-231 cells) of 0.408 µM.

For CCn1c2ccccc2c2cc(-n3nncc3-c3cccc(OC)c3)ccc21 [I-3, 9-ethyl-3-(5-(3-methoxyphenyl)-1H-1,2,3-triazol-1-yl)-9H-carbazole], the inhibition at 1 µM (MDA-MB-231) was at most 1% and the GI50 (MDA-MB-231 cells) was 0.248 µM.

For CCN(CC)CCCC(C)Nc1nc(C)cc(Nc2ccc3nc(C)cc(N)c3c2)n1 (centres unmarked) [NSC23766], the pIC50 (Rac) is given as under 4.12.

For Cc1cc2cc(Nc3ccnc(Nc4ccc5[nH]c(C)cc5c4)n3)ccc2[nH]1 [Aza-1], the effective concentration range (Rac and Cdc42) is listed as “effective in the micromolar range”.

In the case of CCn1c2ccccc2c2cc(-n3nncc3CCO)ccc21 [I-8, 2-(1-(9-ethyl-9H-carbazol-3-yl)-1H-1,2,3-triazol-5-yl)ethan-1-ol], the GI50 (MDA-MB-231 cells) was over 50 µM.

For COc1ccc(C2=NN(c3ccc(S(N)(=O)=O)cc3)C(c3ccccc3)C2)cc1 (centres unmarked) [CID2950007/ML141], the effective concentration range (Rac and Cdc42) is listed as “effective in the micromolar range”.

With CCn1c2ccccc2c2cc(-n3nncc3-c3ccc(Oc4ccccc4)cc3)ccc21 [I-7] the inhibition at 10 µM (MDA-MB-231) was 30.8% and the GI50 (MDA-MB-231 cells) was over 50 µM.

For CCn1c2ccccc2c2cc(Nc3ccnc(NCCCN4CCOCC4)n3)ccc21 [EHop-016], the “concentrations inhibiting Cdc42 activity” value (Cdc42) is listed as at least 10 µM, the “inhibition of Cdc42 activity” value (Cdc42; higher concentrations (>10 μM)) is listed as 75% and the pIC50 (Cdc42; read-out: IC50 for Cdc42 inhibition) is listed as about 5.10. For the same compound, the average half-life [1] was 4.5 h, the bioavailability [1] was about 30% and the pIC50 (Rac1 [2]; MDA-MB-435 metastatic cells, read-out: IC50 for Rac activity) was 5.96 and ~5.96. For the same compound, the “concentrations inhibiting Rac1 activity” value (Rac1 [2]) was under 5 µM, the “inhibition of Rac activity” value (Rac1 [2]; higher concentrations (>10 μM)) was 100% and the pIC50 (Rac1 [2]; read-out: IC50 (Rac inhibitor)) was 5.96. The “reduction of tumor growth” value (mammary tumor; 10 mg/kg BW) was about 40%, the “effect on mammary tumor growth, metastasis and angiogenesis” value (mammary tumor; 25 mg/kg BW) was “reduces mammary tumor growth, metastasis, and angiogenesis” and the toxicity (mammary tumor; 25 mg/kg BW) was “without apparent toxicity”. The “potency relative to NSC23766” value (Rac1 [3]) was about 100 ×.

Work on CCn1c2ccccc2c2cc(-n3nncc3-c3ccccn3)ccc21 [I-6, 9-ethyl-3-(5-(pyridin-2-yl)-1H-1,2,3-triazol-1-yl)-9H-carbazole] yielded an inhibition at 10 µM (MDA-MB-231) of 28% and a GI50 (MDA-MB-231 cells) of over 50 µM.

CCn1c2ccccc2c2cc(-n3nncc3-c3cccnc3)ccc21 [I-4, 9-ethyl-3-(5-(pyridin-3-yl)-1H-1,2,3-triazol-1-yl)-9H-carbazole] gave an inhibition at 10 µM (MDA-MB-231) of 65.1% and a GI50 (MDA-MB-231 cells) of over 50 µM.
